In patent US20160159774A1 (Celgene Avilomics Research, Inc., priority 2014, published 2016):

Assays:
[1] = molecular target: T1, BTK in Ramos human Burkitt lymphoma cells (Homo sapiens, UniProt Q06187); assay: BTK Ramos cellular assay (BTK occupancy); assay type: cell-based; conditions: concentration producing 50% occupancy of BTK, 1 hour incubation with compound
T1 construct: Compounds of this invention were assayed in Ramos human Burkitt lymphoma cells; endogenous in cells; host or cells: Ramos human Burkitt lymphoma cells
T1 sequence (Q06187 whole entry): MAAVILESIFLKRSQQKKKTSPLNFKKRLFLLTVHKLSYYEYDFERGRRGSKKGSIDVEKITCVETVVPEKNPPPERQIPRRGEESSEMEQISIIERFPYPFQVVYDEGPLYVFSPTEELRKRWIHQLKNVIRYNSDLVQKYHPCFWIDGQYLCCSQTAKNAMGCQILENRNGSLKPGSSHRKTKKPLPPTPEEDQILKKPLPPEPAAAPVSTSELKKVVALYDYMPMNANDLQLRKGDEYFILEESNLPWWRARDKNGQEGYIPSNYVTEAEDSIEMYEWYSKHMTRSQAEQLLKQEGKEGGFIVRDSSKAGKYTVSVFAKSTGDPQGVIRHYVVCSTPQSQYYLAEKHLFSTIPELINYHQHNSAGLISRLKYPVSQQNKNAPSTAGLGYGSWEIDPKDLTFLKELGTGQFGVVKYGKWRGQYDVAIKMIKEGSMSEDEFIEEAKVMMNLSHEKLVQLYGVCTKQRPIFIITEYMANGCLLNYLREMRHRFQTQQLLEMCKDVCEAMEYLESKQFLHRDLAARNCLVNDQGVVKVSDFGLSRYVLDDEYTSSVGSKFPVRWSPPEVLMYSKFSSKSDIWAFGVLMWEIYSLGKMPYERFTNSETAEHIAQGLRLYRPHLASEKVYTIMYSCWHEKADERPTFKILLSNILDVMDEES
Outline: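 Ramos cells at 2×10^6 cells/mL in serum-free medium treated 1 hour with compound (500 to 0.7 nM final), then lysed. Free BTK captured by biotinylated covalent probe (1 μM final, 1 h) on streptavidin plate, detected by anti-Btk ELISA at OD 450 nm against recombinant Btk standard, normalized to total protein; value is concentration giving 50% occupancy.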

activated BTK enzyme = molecular target: T2, activated BTK enzyme (Homo sapiens, UniProt Q06187); assay: Omnia assay for potency assessment against BTK; assay type: biochemical; conditions: BTK inhibition assay; [BTK]=5 nM, [ATP]=40 μM, [Y5-Sox]=10 μM
T2 construct: purchased Life Technologies PV3363
T2 sequence (Q06187 whole entry): as above
Outline: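 Activated BTK (5 nM) was pre-incubated 30 min at room temperature with compound, then reacted with 40 μM ATP (KMapp ~36 μM) and 10 μM Y5-Sox peptide in Tris pH 7.5/MgCl2/EGTA/DTT buffer. Sox fluorescence (ex360/em485) followed for 60 min; IC50 from initial velocities (~0–30 min) by variable-slope fit.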

SMILES | melting point [°C] | EC50 [1] [nM] | IC50 (activated BTK enzyme) [nM]
C=CC(=O)N1CCC[C@@H](Nc2nc(Nc3ccc4c(c3)CN(C(C)(C)C)CC4)ncc2F)C1 [Compound I-49, (R)-1-(3-(2-(2-tert-Butyl-1,2,3,4-tetrahydroisoquinolin-7-ylamino)-5-fluoropyrimidin-4-ylamino)piperidin-1-yl)prop-2-en-1-one] | 118 to 121 | 10 to 100 | < 10
C=CC(=O)N1CCC[C@@H](Nc2nc(Nc3ccc4c(c3)CN(C)C4=O)ncc2F)C1 [Compound I-61, (R)-5-(4-(1-Acryloylpiperidin-3-ylamino)-5-fluoropyrimidin-2-ylamino)-2-methylisoindolin-1-one] | 120 to 122 | 10 to 100 | < 10
C=CC(=O)N1CCC[C@@H](Nc2nc(Nc3ccc4c(c3)CN(C3CC3)CC4)ncc2F)C1 [Compound I-48, (R)-1-(3-(2-(2-Cyclopropyl-1,2,3,4-tetrahydroisoquinolin-7-ylamino)-5-fluoropyrimidin-4-ylamino)piperidin-1-yl)prop-2-en-1-one] | 105 to 107 | < 10 | < 10
C=CC(=O)N1CCC[C@@H](Nc2nc(Nc3ccc4c(c3)CCN(CC3COC3)CC4)ncc2F)C1 [Compound I-59, (R)-1-(3-(5-Fluoro-2-(3-(oxetan-3-ylmethyl)-2,3,4,5-tetrahydro-1H-benzo[d]azepin-7-ylamino)pyrimidin-4-ylamino)piperidin-1-yl)prop-2-en-1-one] | 104 to 106 | < 10 | < 10
C=CC(=O)N1CCC[C@@H](Nc2nc(Nc3ccc4c(c3)CN(CC3COC3)CCC4)ncc2F)C1 [Compound I-56, (R)-1-(3-(5-Fluoro-2-(2-(oxetan-3-ylmethyl)-2,3,4,5-tetrahydro-1H-benzo[c]azepin-8-ylamino)pyrimidin-4-ylamino)piperidin-1-yl)prop-2-en-1-one] | 103 to 105 | 10 to 100 | < 10
